Series [1] in a line: Dialysis of fat emulsion in aqueous glycerin, content of glutathione derivative retained (Example 23). It counts as physicochemical. Particulars: 2 mg/ml fat emulsion, dialysis 2 days at room temperature in 2.3 (w/v)% glycerin, 1.2 μm filter; uncorrected for volume increase. Here is the method: The glutathione derivative combined with a fat emulsion was dialyzed in an aqueous solution of glycerin to compare changes in the content of the glutathione derivative in the fat emulsion.
Thereupon, the concentration of the glutathione derivative in the fat emulsion was adjusted to 2 mg/ml.
(2) These fat emulsions (14 ml) were dialyzed in 1 liter of a 2.3 (w/v)% aqueous solution of glycerin. Dialysis was carried out at room temperature for 2 days with one change of the aqueous glycerin solution during the dialysis. All the fat emulsions after dialysis were about 15.6 ml. They were filtered by a 1.2 μm filter and the content of the glutathione derivative was measured.

The test system of series [2] is rat models of suppressed hematopoietic function by 5-FU administration. The series is described as follows: Recovery of neutrophil counts in rat models of suppressed hematopoietic function by 5-FU (Example 26). The series is classed as in vivo. The conditions noted are these: 5-FU rats, days 2-10. The source says:
Regarding the effect of promoting the recovery of neutrophil counts in rat models of suppressed hematopoietic function by 5-fuluorouracil administration, statistical significance was compared to the control group to compare the pharmaceutical composition containing Example 4 of the present invention as an active ingredient with the pharmaceutical composition of the conventional technology of Comparative Example 1 and granulocyte colony-stimulating factor (G-CSF).
(1) Animals used and the keeping condition: Male SD rats, 6-week old, purchased from Nippon SLC were used. The animal feed (manufactured by Oriental Yeast Co., Ltd.) and drinking water (well water treated with 0.4±0.2 ppm hypochlorous acid) were given ad libitum during the period of the experiment. The animals were housed in a hanging-type rat cage (manufactured by Nippon Cage K.K.) and kept at a temperature of 24±2° C. and a humidity of 55±5%.
(2) Creation of rat models of suppressed hematopoietic function by 5-FU administration; Creation of rat models of suppressed hematopoietic function by 5-FU (Kyowa Hakko Kogyo Co. Ltd.) administration was carried out based on the method of Akamatsu et al. (Yakuri to Chiryo(Pharmacology and Therapy), 18. (Suppl. 9), 317-356 (1990)). Thus, on the first day of the experiment, 5-FU at 50 mg/kg-body weight (dosage volume is 1 ml/kg-body weight) or the same amount of physiological saline (manufactured by Fuso Pharmaceuticals Industries, Ltd.) was intraperitoneally administered to the rats described in (1). On days 4, and 7-12, blood was drawn from the jugular vein and the EDTA-2K-treated blood was obtained. The blood was used to determine the neutrophil count using a general chemistry test instrument (Technicon H-1E, manufactured by Bayer-Sankyo K.K.) and the ratio of reticulocytes using a reticulocyte determination instrument (EPICS, XL-MCL, manufactured by Coulter K.K.). Blood was also drawn on day 1 of the experiment, and the values determined for the blood were used as the pre-administration values.
In the physiological saline administration group, no changes in neutrophil count were observed throughout the experiment period, whereas in the 5-FU administration group there was a reduction in neutrophil count with the lowest value observed on day 8 of the experiment, and the neutrophil count was recovered to the value before 5-FU administration or higher on day 10 of the experiment or after. The above results confirmed that rat models of suppressed hematopoietic function can be created by a single intraperitoneal administration of 5-FU at 50 mg/kg-body weight.
(3) Evaluation of Example 4 and Comparative Example 1 in the above model; To the model described in (2), the glutathione derivative of Example 4 combined with the fat emulsion at 10 to 30 mg/kg-body weight/day or the glutathione derivative of Comparative Example 1 dissolved in a physiological saline containing 2.5% hydroxypropyl-β-cyclodextrin at 50 mg/kg-body weight/day was repeatedly administered into the tail vein for 9 days from day 2 to 10 of the experiment. The recombinant human G-CSF formulation (hereinafter referred to as G-CSF, manufactured by Chugai Pharmaceutical Co., Ltd.) as the positive control at 10 μg/kg-body weight/day and the empty fat emulsion as the negative control were administered in a similar manner. […]

A further series relates to rabbit liver esterase. The series is described as follows: Decomposition of glutathione derivatives by rabbit liver esterase (physiological stability). The series is classed as in vitro ADME. The conditions noted are these: BSA/D-PBS pH 7.4, 196-244 μg/ml. Here is the method: (1) Bovine serum albumin (hereinafter referred to as BSA), Dulbecco's phosphate buffered saline (hereinafter referred to as D-PBS), swine liver esterase, and rabbit liver esterase were purchased from Sigma, 6-week old male SD rats were purchased from Nippon SLC, and 12-week old or older male Japanese white rabbits were purchased from Ichikawaya. On the day of the incubation experiment described below, blood was drawn from the animals in the presence of heparin, and plasma was separated therefrom for use. Human plasma was obtained from normal healthy males after obtaining their consent.
(2) The glutathione derivatives described in the Examples and Comparative Examples of the present invention were incubated for a fixed time in an enzyme solution having the following composition. Acetonitrile was added to the reaction mixture to inactivate the enzyme thereby to stop the reaction. The concentration of the glutathione derivatives in the deproteinized supernatant was measured by HPLC. For each time point of the esterase enzyme experiment, the mean values from two measurement or more were determined, and for the rats and rabbits the mean values of plasma samples from three individuals were determined. For some of the experiment data, changes with time of percentages relative to initial concentration of the glutathione derivative are shown in FIGS. 2 to 4.
Swine liver esterase and rabbit liver esterase experiment
30 mg-BSA/ml-D-PBS (pH 7.4): 36 to 45 parts
Swine or rabbit liver esterase/D-PBS: 4-5 parts
10 mg-glutathione derivative/ml-ethanol: one part (the final concentration in the reaction mixture is 196-244 μg/ml)

The next series concerns IL-1β. In words: Plasma level of IL-1β in normal healthy rats (ELISA). The series is classed as in vivo, rat. Particulars: fat emulsion 20 mg/kg-body weight/day, days 3, 5 and 7. The source says: , plasma obtained form the EDTA-2K-treated blood on days 3, 5, and 7 of the experiment was used to determine plasma levels of interleukin 1β (hereinafter referred to as IL-1β) and tumor necrosis factor (hereinafter referred to as TNFα). For the determination, the rat IL-1β-ELISA system (manufactured by Amersham Pharmacia Biotek Co., Ltd.), the rat TNFα-ELISA system (manufactured by Amersham Pharmacia Biotek Co., Ltd.), and the BioRad microplate reader (MODEL550, Nippon BioRad laboratories, Co., Ltd.).

3 molecules from patent US6627732B1, “Glutathione derivatives and their dosage forms” (Teijin Limited, priority 1998, dated 2003) can be followed below.

With `CCOC(=O)[C@@H](N)CCC(=O)N[C@@H](CSCc1ccccc1)C(=O)N[C@@H](C(=O)OCC)c1ccccc1.Cl` [Comparative Example 1, Glu(Cys(Bzl)-D-Phg-O(Et))-O(Et)hydrochloride, reference compound], in series [1], the “Content of the glutathione derivative in the fat emulsion after dialysis, of the initial feed” value turned out to be 14.0%. For the same molecule, the “Neutrophil counts relative to the negative control group” value in series [2] (HPCD solution 50 mg/kg-body weight/day iv, significant (5%) on day 12 only) is reported as “no changes were observed compared to the negative control group”.
Consider `CCCCCCCCOC(=O)[C@H](NC(=O)[C@H](CSCc1ccccc1)NC(=O)CC[C@H](N)C(=O)OCC)c1ccccc1.Cl` [Comparative Example 2, Glu(Cys(Bzl)-D-Phg-O(Octyl))-O(Et)hydrochloride, reference compound], for which the “Decomposition rate constant by rabbit liver esterase” value in the series on rabbit liver esterase is recorded as 267 10^−4/unit/min.
Take `CCCCCCCCCCCCCCCCOC(=O)[C@@H](N)CCC(=O)N[C@@H](CSCc1ccccc1)C(=O)N[C@@H](C(=O)OCC)c1ccccc1.Cl` [Example 4, Glu(Cys(Bzl)-D-Phg-OEt)-O(Hexadecyl)hydrochloride]: the “Decomposition rate constant by rabbit liver esterase” value in the series with rabbit liver esterase was 0.836 10^−4/unit/min. The “Neutrophil counts relative to the negative control group” value is “No changes were observed” in series [2] (fat emulsion 10 mg/kg-body weight/day iv); “statistically significant increase” in series [2] (fat emulsion 20 mg/kg-body weight/day iv, days 9 to 11, significance 1% to 0.1%); “statistically significant increase” in series [2] (fat emulsion 30 mg/kg-body weight/day iv, from day 8, significance 5%-0.1%). Besides, the “Plasma level of IL-1β relative to the negative control group” value with IL-1β is given as “No increases”.
